Assay results reported in patent US20260325655A1, “DECREASING THE INTRINSICALLY DISORDERED PROTEIN ALPHA-SYNUCLEIN’S LEVELS BY TARGETING ITS STRUCTURED MRNA WITH A RIBONUCLEASE TARGETING CHIMERA” (University of Florida Research Foundation, Incorporated, priority 2023, published 2026).

Tested on: PD patient-derived neurons
Assay: total RNA-seq in PD patient-derived dopaminergic neurons
Format: cell-based, human
Method: RNA-seq analysis. Total RNA was quantified using the Qubit 2.0 Fluorometer (Invitrogen) and an Agilent 2100 Bioanalyzer RNA nano chip. Samples with RIN>9.0 were proceeded to library preparation using NEBNext Ultra II Directional RNA Kit (Cat. #E7760, NEB) following manufacture's protocol. Briefly, 200 ng of total RNA was depleted of ribosomal RNA using the NEBNext rRNA Depletion Module. The product was chemically fragmented using NEBNext Magnesium RNA Fragmentation Module (E6150S, NEB) the at 94° C. for 15 min. First-strand synthesis was performed with random primers, and second strand was synthesized with dUTP in place of dTTP. After end repair and 3′ adenylation, the cDNA was ligated with adaptors and then treated with USER enzyme (Uracil-specific excision reagent). The product was PCR amplified with Illumina-barcoded primers to generate the cDNA libraries. The final libraries were analyzed on the bioanalyzer DNA chips, pooled in equimolar ratios, and loaded onto the NextSeq 500 v2.5 flow cell and sequenced with 2×40 bp paired-end chemistry. The raw data were aligned to the human genome using STAR.^11 Read counts were extracted using featureCounts,^12 and the differential gene analysis was performed using Deseq2.^13
Dopamine neuron induction. For dopamine neuronal induction,^15,16 the dual-SMAD inhibition method^17 was used for floor plate (FP)-based midbrain dopamine (DA) neuron induction with modifications. Prior to differentiation, Matrigel matrix (BD) was thawed at 4° C. overnight or on ice until it is dissolved. Matrigel coated 6-well plates were prepared according to manufacturer's instructions and incubated at 37° C. for at least 1 h before use. iPSCs were dissociated with Accutase (STEMCELL Technologies) and plated (3.5×10^5-4×10^5 cells per cm^2) into a new Matrigel coated plate and grown in mTeSR medium (STEMCELL Technologies) with StemBeads FGF2 (StemCultures) and ROCK inhibitor Y27632 (5 μM, Tocris). After 24 to 48 h, when the cells reached 100% confluency, the differentiation protocol was initiated by feeding the cells with DMEM containing 15% KnockOut Serum Replacement (KSR, Gibco), 2 mM L-glutamine (L-Glut) and 10 μM β-mercaptoethanol for 11 days.
Floor Plate (FP) induction protocol was followed based on timed exposure to BMP inhibitor LDN193189 (100 nM, PeproTech), ALK inhibitor SB431542 (10 μM, Tocris), recombinant mouse sonic hedgehog N-terminus SHH C25II (100 ng/ml, R&D), Smoothened agonist Purmorphamine (2 μM, PeproTech) and GSK3 inhibitor CHIR99021 (CHIR; 3 μM, PeproTech). KSR medium was gradually shifted to N2 medium (Neurobasal/N2 with B27 Plus Supplement; Gibco) starting on day 5 of differentiation as described previously.^18 On day 11, the medium was changed to Neurobasal/B27/L-Glut containing medium (NB/B27; Gibco) supplemented with CHIR (until day 13) and with BDNF (20 ng/ml; PeproTech), ascorbic acid (0.2 mM), GDNF (20 ng/ml; PeproTech), dibutyryl cAMP (0.5 mM; PeproTech), TGFβ3 (1 ng/ml; PeproTech), and γ-secretase inhibitor DAPT (10 μM; PeproTech) for 9 days. On Day 20 and Day 30 (midbrain DA neuron precursor stages), cells were dissociated using Accutase and replated at high cell density (8× 10^5 cells per cm^2) in dishes pre-coated with 15 μg/ml polyornithine/1 μg/ml laminin/2 μg/ml fibronectin in differentiation medium (NB/B27+BDNF, ascorbic acid, GDNF, dbcAMP, TGFβ3 and DAPT). […]

[1] = among 461 genes significantly downregulated in PD neurons
[2] = among 976 genes significantly upregulated in PD neurons

hexokinase 2 (HK2) expression (PD patient-derived neurons, only gene besides SNCA): significantly decreased
Compound: CCOC(=O)C1=C(Nc2ccccc2)S/C(=C\c2ccc(OCCOCCOCCOCCNC(=O)CCCOc3ccc(-n4c(SCC(=O)Nc5ccc6cn[nH]c6c5)nnc4-c4ccncc4)cc3)c(O)c2)C1=O [Syn-RiboTAC]
number of PD-downregulated genes improved [1]: 223 | percent of PD-downregulated genes improved [1]: 48% | number of PD-upregulated genes improved (decreased) [2]: 488 | percent of PD-upregulated genes improved (decreased) [2]: 50%
